Here are results for 28 compounds from patent publication US11046699B2, “Pyrazolo-pyrimidin-amino-cycloalkyl compounds and their therapeutic uses” (RAPT THERAPEUTICS, INC., priority 2018, dated 2021).

GCN2, sequence (Q9P2K8 whole entry): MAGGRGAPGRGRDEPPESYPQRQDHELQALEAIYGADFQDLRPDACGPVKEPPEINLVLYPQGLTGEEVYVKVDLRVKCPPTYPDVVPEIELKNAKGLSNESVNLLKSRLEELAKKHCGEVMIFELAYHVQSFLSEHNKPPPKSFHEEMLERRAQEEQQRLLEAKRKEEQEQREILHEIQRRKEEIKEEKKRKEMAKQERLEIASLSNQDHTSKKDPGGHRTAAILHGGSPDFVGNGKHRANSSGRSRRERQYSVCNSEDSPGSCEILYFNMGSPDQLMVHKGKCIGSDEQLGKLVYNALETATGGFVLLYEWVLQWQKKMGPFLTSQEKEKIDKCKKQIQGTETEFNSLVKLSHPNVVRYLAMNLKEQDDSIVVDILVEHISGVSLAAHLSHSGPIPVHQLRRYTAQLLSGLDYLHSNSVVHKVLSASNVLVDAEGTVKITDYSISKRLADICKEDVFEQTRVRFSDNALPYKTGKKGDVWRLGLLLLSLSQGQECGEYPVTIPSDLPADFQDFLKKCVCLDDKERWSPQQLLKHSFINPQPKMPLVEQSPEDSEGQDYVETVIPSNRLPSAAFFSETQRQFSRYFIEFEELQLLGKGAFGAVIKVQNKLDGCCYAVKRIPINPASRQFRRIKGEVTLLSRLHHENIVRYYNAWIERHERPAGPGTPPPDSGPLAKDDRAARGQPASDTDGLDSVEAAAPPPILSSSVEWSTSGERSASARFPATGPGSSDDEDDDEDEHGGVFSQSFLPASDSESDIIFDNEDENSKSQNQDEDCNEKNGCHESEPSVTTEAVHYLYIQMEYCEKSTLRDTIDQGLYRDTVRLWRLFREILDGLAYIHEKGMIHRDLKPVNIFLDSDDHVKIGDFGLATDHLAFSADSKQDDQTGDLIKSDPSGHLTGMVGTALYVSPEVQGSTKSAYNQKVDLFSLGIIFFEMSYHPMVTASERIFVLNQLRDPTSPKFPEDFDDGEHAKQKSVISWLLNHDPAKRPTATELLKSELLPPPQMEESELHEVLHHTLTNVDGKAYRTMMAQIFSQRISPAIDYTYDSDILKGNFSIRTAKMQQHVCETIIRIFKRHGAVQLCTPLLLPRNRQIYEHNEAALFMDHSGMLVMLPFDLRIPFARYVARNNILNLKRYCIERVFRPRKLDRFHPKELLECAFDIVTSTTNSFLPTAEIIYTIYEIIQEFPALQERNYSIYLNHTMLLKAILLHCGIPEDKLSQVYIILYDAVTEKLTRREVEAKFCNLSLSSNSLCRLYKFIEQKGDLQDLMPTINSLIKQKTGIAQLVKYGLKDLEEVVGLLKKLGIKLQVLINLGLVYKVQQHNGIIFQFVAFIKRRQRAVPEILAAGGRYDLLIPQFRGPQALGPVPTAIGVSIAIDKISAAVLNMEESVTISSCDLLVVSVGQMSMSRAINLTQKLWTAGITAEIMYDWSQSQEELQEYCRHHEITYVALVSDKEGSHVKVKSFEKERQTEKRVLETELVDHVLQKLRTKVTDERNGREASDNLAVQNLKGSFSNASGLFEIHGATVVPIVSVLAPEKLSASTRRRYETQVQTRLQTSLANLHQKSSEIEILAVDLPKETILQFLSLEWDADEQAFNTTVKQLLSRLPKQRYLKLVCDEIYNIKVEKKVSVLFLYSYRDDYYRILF

In the first test the target is GCN2 (Homo sapiens, UniProt Q9P2K8). Put plainly: GCN2 enzymatic endpoint assay: phosphorylation of GFP-eIF2α measured by TR-FRET (Lanthascreen). As to conditions: GCN2 biochemical IC50; 4 nM GCN2, 2 μM ATP, 80 nM GFP-eIF2α, 90 min RT; read-out: GCN2 activity. In kind it is biochemical. As for the experimental part:
The Enzymatic assay was run as an endpoint assay to quantify the activity of the serine/threonine GCN2 kinase by way of measuring phosphorylation of its natural substrate, eiF2α.
The enzymatic reaction was initiated by incubating with 2 μM ATP and 80 nM of GFP labeled eiF2a substrate at room temperature and then stopped after 90 minutes with EDTA. The amount of phosphorylated eIF2α is determined by TR-FRET (Lanthascreen). A terbium labeled antibody associates with the phosphorylated substrate resulting in an increased TR-FRET value. Activity was calculated as the ratio of the acceptor (fluorescein) signal at 520 nm wavelength to the donor (terbium) signal 495 nm. The amount of antibody that is bound to the tracer is directly proportional to the amount of phosphorylated substrate present, and in this manner, kinase activity can be detected and measured by an increase in the TR-FRET value.
Compound addition by D300
5 μL enzyme solution in assay buffer
5 μL substrate/ATP mixture in assay buffer
5 μL stop/detection mix in antibody dilution buffer
(In TR-FRET formats the signal depends on donor and acceptor labels being close together.)
As to `COCCO[C@H]1C[C@H](Nc2ncc3c(Br)nn(-c4ccc5ncccc5c4)c3n2)C1` [Example 4, 3-bromo-N-((1r,3r)-3-(2-methoxyethoxy)cyclobutyl)-1-(quinolin-6-yl)-1H-pyrazolo[3,4-d]pyrimidin-6-amine], the IC50 is 0.025 to 0.2 µM.

The test is the same for the next values; noted with them: tested as described in Example 77; compound and/or hydrochloride, dihydrochloride or trifluoroacetic acid salt; read-out: IC 50 Activity.
Turning to `Cc1nnc(-c2ccc(-n3nc(Br)c4cnc(N[C@@H]5CC[C@@](C)(C(=O)NCC(F)F)C5)nc43)cc2CCC#N)s1` [(1R,3R)-3-[[3-bromo-1-[3-(2-cyanoethyl)-4-(5-methyl-1,3,4-thiadiazol-2-yl)phenyl]pyrazolo[3,4-d]pyrimidin-6-yl]amino]-N-(2,2-difluoroethyl)-1-methyl-cyclopentanecarboxamide], the IC50 lay within 0.025 to 0.2 µM.

For `CCN1CN(C(=O)[C@@H]2CC[C@@H](Nc3ncc4c(Br)nn(-c5cc(F)c6ncccc6c5)c4n3)C2)CC1=O` [1-((1R,3R)-3-((3-bromo-1-(8-fluoroquinolin-6-yl)-1H-pyrazolo[3,4-d]pyrimidin-6-yl)amino)cyclopentane-1-carbonyl)-3-ethyl-imidazolidin-4-one], the IC50 was 0.025 to 0.2 µM. On to `CNC(=O)[C@@H]1CC[C@@H](Nc2ncc3c(Br)nn(-c4ccc(-c5nnn[nH]5)cc4)c3n2)C1` [(1R,3R)-3-((1-(4-(1H-tetrazol-5-yl)phenyl)-3-bromo-1H-pyrazolo[3,4-d]pyrimidin-6-yl)amino)-N-methylcyclopentane-1-carboxamide], for which the IC50 lay within 0.025 to 0.2 µM. The same measure, in the same setting: to `O=C(NC1CCCN(CCF)C1)[C@@H]1CC[C@@H](Nc2ncc3c(Br)nn(-c4cc(F)c5ncccc5c4)c3n2)C1` (mixture of isomers) belongs 0.025 to 0.2 µM.

For the compound `CNC(=O)C1(C)CC[C@@H](Nc2ncc3c(Br)nn(-c4ccc5nc(OC)ccc5c4)c3n2)C1` (stereo partly drawn) [(3R)-3-((3-bromo-1-(2-methoxyquinolin-6-yl)-1H-pyrazolo[3,4-d]pyrimidin-6-yl)amino)-N,1-dimethylcyclopentane-1-carboxamide], the IC50 fell in the range of 0.025 to 0.2 µM. Consider `CNC(=O)[C@]1(C)CC[C@@H](Nc2ncc3c(Br)nn(-c4ccc(C5=NOCC5)cc4)c3n2)C1` [(1R,3R)-3-[[3-bromo-1-[4-(4,5-dihydro-isoxazol-3-yl)phenyl]pyrazolo[3,4-d]pyrimidin-6-yl]amino]-N,1-dimethyl-cyclopentanecarboxamide], for which the IC50 lay in the range of 0.025 to 0.2 µM. For the compound `CNC(=O)[C@]1(C)CC[C@@H](Nc2ncc3c(Br)nn(-c4ccc(-c5nnc(CC(C)O)o5)cc4)c3n2)C1` (stereo partly drawn) [(1R,3R)-3-[[3-bromo-1-[4-[5-(2-hydroxy-propyl)-1,3,4-oxadiazol-2-yl]phenyl]pyrazolo [3,4-d]pyrimidin-6-yl]amino]-N,1-dimethyl-cyclopentanecarboxamide], the IC50 lay within 0.025 to 0.2 µM.

Regarding `CNC(=O)[C@@H]1CC[C@@H](Nc2ncc3c(Br)nn(-c4cc(F)c5nc(C)ccc5c4)c3n2)C1` [(1R,3R)-3-((3-bromo-1-(8-fluoro-2-methyl-quinolin-6-yl)-1H-pyrazolo[3,4-d]pyrimidin-6-yl)amino)-N-methylcyclopentane-1-carboxamide], the IC50 lay within 0.025 to 0.2 µM. For `CNC(=O)[C@@H]1CC[C@@H](Nc2ncc3c(Br)nn(-c4ccc5nc(OC)ccc5c4)c3n2)C1` [(1R,3R)-3-[[3-bromo-1-(2-methoxy-6-quinolyl)pyrazolo[3,4-d]pyrimidin-6-yl]amino]-N-methyl-cyclopentanecarboxamide], the IC50 is 0.025 to 0.2 µM. As for `CNC(=O)[C@]1(C)CC[C@@H](Nc2ncc3c(Br)nn(-c4ccc(-c5nnc(C)s5)c(F)c4)c3n2)C1`, the IC50 was < 0.025 µM. On the same count and under the same terms, in the case of `CNC(=O)C1(C)CC[C@@H](Nc2ncc3c(Br)nn(-c4cc(Cl)cc(C(N)=O)c4)c3n2)C1` (stereo partly drawn) [3-[3-bromo-6-[[(1R)-3-methyl-3-(methylcarbamoyl)cyclopentyl]amino]pyrazolo[3,4-d]pyrimidin-1-yl]-5-chloro-benzamide] it was < 0.025 µM. Regarding `CNC(=O)[C@]1(C)CC[C@@H](Nc2ncc3c(Br)nn(-c4ccc5ncc(OCCOC)cc5c4)c3n2)C1` [(1R,3R)-3-[[3-bromo-1-[3-(2-methoxy-ethoxy)-6-quinolyl]pyrazolo[3,4-d]pyrimidin-6-yl]amino]-N,1-dimethyl-cyclopentanecarboxamide], the IC50 lay within 0.025 to 0.2 µM. The same measure, in the same setting: to `COCCNC(=O)[C@@H]1CC[C@@H](Nc2ncc3c(Br)nn(-c4ccc5cnn(C)c5c4)c3n2)C1` [(1R,3R)-3-((3-bromo-1-(1-methyl-1H-indazol-6-yl)-1H-pyrazolo[3,4-d]pyrimidin-6-yl)amino)-N-(2-methoxyethyl)cyclopentane-1-carboxamide] belongs 0.2 to 0.5 µM; to `CNC(=O)[C@]1(C)CC[C@@H](Nc2ncc3c(Br)nn(-c4cc(C#N)cc(OCCO)c4)c3n2)C1` [(1R,3R)-3-[[3-bromo-1-[3-cyano-5-(2-hydroxyethoxy)phenyl]pyrazolo[3,4-d]pyrimidin-6-yl]amino]-N,1-dimethyl-cyclopentanecarboxamide], 0.025 to 0.2 µM. With `CNC(=O)[C@@]1(CC(F)F)CC[C@@H](Nc2ncc3c(Br)nn(-c4ccc(-c5nnc(C)o5)cc4)c3n2)C1` [(1S,3R)-3-[[3-bromo-1-[4-(5-methyl-1,3,4-oxadiazol-2-yl)phenyl]pyrazolo[3,4-d]pyrimidin-6-yl]amino]-1-(2,2-difluoroethyl)-N-methyl-cyclopentanecarboxamide], the IC50 is 0.025 to 0.2 µM. Consider `CNC(=O)[C@]1(C)CC[C@@H](Nc2ncc3c(Br)nn(-c4cc(CO)cc(S(C)(=O)=O)c4)c3n2)C1` [(1R,3R)-3-[[3-bromo-1-[3-(hydroxymethyl)-5-methylsulfonyl-phenyl]pyrazolo[3,4-d]pyrimidin-6-yl]amino]-N,1-dimethyl-cyclo-pentanecarboxamide], for which the IC50 fell in the range of 0.025 to 0.2 µM.

Turning to `CNC(=O)[C@]1(C)CC[C@@H](Nc2ncc3c(Br)nn(-c4cc(Cl)cc(C5COC(=O)N5C)c4)c3n2)C1` (stereo partly drawn) [(1R,3R)-3-[[3-bromo-1-[3-chloro-5-(3-methyl-2-oxo-oxazolidin-4-yl)phenyl]pyrazolo[3,4-d]pyrimidin-6-yl]amino]-N,1-dimethyl-cyclopentanecarboxamide], the IC50 lay in the range of 0.025 to 0.2 µM. On the same count and under the same terms, in the case of `CNC(=O)[C@]1(C)CC[C@@H](Nc2ncc3c(Br)nn(-c4ccc(-c5cnc(C)o5)cc4)c3n2)C1` [(1R,3R)-3-[[3-bromo-1-[4-(2-methyloxazol-5-yl)phenyl]pyrazolo[3,4-d]pyrimidin-6-yl]amino]-N,1-dimethyl-cyclopentane-carboxamide] it was 0.025 to 0.2 µM; in that of `Cc1nnc(-c2ccc(-n3nc(Br)c4cnc(N[C@@H]5CCC(S(=O)(=O)NCCC#N)C5)nc43)cc2)s1` (stereo partly shown), 0.025 to 0.2 µM. Consider `CCS(=O)(=O)N1Cc2ccc(-n3nc(Br)c4cnc(N[C@@H]5CC[C@@](C)(C(=O)NC)C5)nc43)cc2C1` [(1R,3R)-3-[[3-bromo-1-(2-ethylsulfonyl-isoindolin-5-yl)pyrazolo[3,4-d]pyrimidin-6-yl]amino]-N,1-dimethyl-cyclopentane-carboxamide], for which the IC50 is 0.025 to 0.2 µM. Turning to `CC1(C(=O)NCCF)CC[C@@H](Nc2ncc3c(Br)nn(-c4cc(F)c5ncccc5c4)c3n2)C1` (stereo partly drawn) [(3R)-3-[[3-bromo-1-(8-fluoro-6-quinolyl)pyrazolo[3,4-d]pyrimidin-6-yl]amino]-N-(2-fluoroethyl)-1-methyl-cyclopentane-carboxamide], the IC50 lay within 0.025 to 0.2 µM. Consider `O=C([C@@H]1CC[C@@H](Nc2ncc3c(Br)nn(-c4cc(F)c5ncccc5c4)c3n2)C1)N1CCS(=O)(=O)CC1` [((1R,3R)-3-((3-bromo-1-(8-fluoroquinolin-6-yl)-1H-pyrazolo[3,4-d]pyrimidin-6-yl)amino)cyclopentyl)(1,1-dioxidothio-morpholino)methanone], for which the IC50 was 0.025 to 0.2 µM. In the case of `CNC(=O)[C@]1(C)CC[C@@H](Nc2ncc3c(Br)nn(-c4ccc(-c5nnc(C)o5)c(CCO)c4)c3n2)C1` [(1R,3R)-3-[[3-bromo-1-[3-(2-hydroxyethyl)-4-(5-methyl-1,3,4-oxadiazol-2-yl)phenyl]pyrazolo[3,4-d]pyrimidin-6-yl]amino]-N,1-dimethyl-cyclopentanecarboxamide], the IC50 lay in the range of 0.025 to 0.2 µM. Take `CNC(=O)[C@]1(C)CC[C@@H](Nc2ncc3c(Br)nn(-c4ccc5c(c4)CCC(=O)N5CC(F)F)c3n2)C1` [(1R,3R)-3-[[3-bromo-1-[1-(2,2-difluoro-ethyl)-2-oxo-3,4-dihydroquinolin-6-yl]pyrazolo[3,4-d]pyrimidin-6-yl]amino]-N,1-dimethyl-cyclopentanecarboxamide]: the IC50 lay within 0.025 to 0.2 µM. Take `CNC(=O)[C@]1(C)CC[C@@H](Nc2ncc3c(Br)nn(-c4cc(CCO)c5nc(C)ccc5c4)c3n2)C1` [(1R,3R)-3-[[3-bromo-1-[8-(2-hydroxy-ethyl)-2-methyl-6-quinolyl]pyrazolo[3,4-d]pyrimidin-6-yl]amino]-N,1-dimethyl-cyclopentanecarboxamide]: the IC50 lay within 0.025 to 0.2 µM.

Turning to `CNC(=O)[C@]1(C)CC[C@@H](Nc2ncc3c(Br)nn(-c4ccc(C#N)c(OCCOC)c4)c3n2)C1` [(1R,3R)-3-[[3-bromo-1-[4-cyano-3-(2-methoxyethoxy)phenyl]pyrazolo[3,4-d]pyrimidin-6-yl]amino]-N,1-dimethyl-cyclopentanecarboxamide], the IC50 is 0.025 to 0.2 µM. Same read-out and setting: to `CC[C@@]1(C(=O)NC)CC[C@@H](Nc2ncc3c(I)nn(-c4cc(F)c5ncccc5c4)c3n2)C1` [(1R,3R)-1-ethyl-3-[[1-(8-fluoro-6-quinolyl)-3-iodo-pyrazolo[3,4-d]pyrimidin-6-yl]amino]-N-methyl-cyclopentanecarboxamide] belongs < 0.025 µM.
